Experimental data as given in US4696930A, “N-(heteroarylalkyl)acylanilide derivatives as antiarrhythmic agents” (Hoffmann-La Roche Inc., priority 1985, dated 1987).
Where two headings read alike, the source gives them in different places.

Key:
[1] = test system: Ouabain-induced ventricular arrhythmia; test: Effectiveness against ouabain-induced ventricular arrhythmia in anesthetized dogs; format: in vivo, dog; conditions: for minimal effective dose: Canis lupus familiaris, iv; for minimal effective dose / No. of effective cases/No. of experiments: dog
Description: Ventricular arrhythmia in an anesthetized dog was induced by an intravenous administration of ouabain. An initial i.v. dose of 40 μg/kg was administered, then 20 μg/kg i.v. 30 minutes later and then additional 10 μg/kg i.v. every 15 minutes until ventricular arrhythmia developed. […] The test compound, which was rac.-2-amino-N-(2,6-dimethylphenyl)-N-[3-(3-pyridinyl)propyl]propanamide dihydrochloride, dissolved in saline solution, was injected into the femoral vein 10 min. after the development of the arrhythmia. The dose schedule for the test compound was 1, 3 and 10 mg/kg i.v. in this order at 15 minute intervals until the arrhythmia was reversed to sinus rhythm.
Effectiveness against Ouabain-induced
Ventricular Arrhythmia in Dogs
MED: Minimum effective dose was measured by successive injections of 1, 3
and 10 mg/kg into the femoral vein at 15 minuteintervals until
ouabaininduced arrhythmia was reversed to the sinus rhythm.

Thromboxane Synthase = test: Thromboxane synthase inhibition (Table III, enzyme source not stated); format: biochemical; conditions: platelet species not stated, read-out: Thromboxane Synthase Inh. IC50
Description: (§1) Rac.-2-amino-N-(2,6-dimethylphenyl)-N-[3-(3-pyridinyl)propyl]propanamide dihydrochloride was tested for its inhibitory effects on thromboxane A2 synthetase (washed rabbit platelet) activity in vitro.
(§2) Therefore, rac.-2-amino-N-(2,6-dimethylphenyl)-N-[3-(3-pyridinyl)propyl]propanamide dihydrochloride is useful in the treatment of ischemic heart disease.

[2] = test system: Arachidonic Acid (AA) induced aggregation of human platelet rich plasma; test: Inhibition of arachidonic acid (AA) induced platelet aggregation; format: cell-based; conditions: 2 min, human PRP, AA 0.3 to 1 mM
Description: (§3) Human platelet rich plasma (PRP) and platelet poor plasma (PPP) are prepared from 0.38% sodium citrate treated blood. PRP is obtained by centrifugation at 180×g for 10 minutes and PPP by centrifuging the remaining red cell layer 1000×g for 10 minutes. Aggregation is determined by the turbidometric method of Born G.V.R., Nature, 194, 927, (1962), and monitored at 37° C. with a Payton dual channel module with stirring speed set at 900 rpm. PRP (0.45 ml) is added to a siliconized cuvette and prewarmed to 37° C. Zero and 100% light transmission are set with PRP and PPP, respectively. AA (50 μl) is added to the stirring PRP one minute after the addition of 5 μl of the compound to be tested. A threshold dose (0.3 to 1 mM) of AA is chosen which causes maximum aggregation at about 2 minutes. […] Activities of compounds of the invention in this test can be found in Table III below.

[3] = test system: Platelet Activating Factor (PAF) induced aggregation of human platelet rich plasma; test: Inhibition of platelet activating factor (PAF) induced platelet aggregation; format: cell-based; conditions: human PRP, PAF 1 μM, first phase response
Description: as §3, with “which was cited above,” for “G.V.R., Nature, 194, 927, (1962),”, “PAF” for “AA”, “PRP prepared from citrated human blood will aggregate when stirred in the presence of PAF giving a two phase response. The first phase is caused by PAF and the second phase is caused by the release of arachidonic acid. PAF is used at 1 μM and only the first phase response, about 30% aggregation, is evaluated. The first phase is resistant to indomethacin. 50% inhibition of the 1st phase PAF response is calculated from” for “A threshold”, “curves and represented as IC50 values.” for “(0.3 to 1 mM) of AA is chosen which causes maximum aggregation at about 2 minutes.”

[4] = test system: ventricular arrhythmias induced by 2-stage ligation of the coronary artery; test: Ventricular arrhythmias induced by 2-stage ligation of the coronary artery (Harris dogs); format: in vivo, dog (mongrel); conditions: for incidence of ventricular premature contractions and conversion to sinus rhythm: n=5
Description: (2) Test for effectiveness against ventricular arrhythmias induced by 2-stage ligation of the coronary artery in dogs (Harris dogs)
Mongrel dogs weighing between 8-14 kg were anesthetized using 30 mg/kg i.v. of sodium pentobarbital. They were artificially ventilated with room air. After thoracotomy via the fourth left intercostal space, the pericardium was opened. The left anterior descending artery was dissected free for a few millimeters near the distal edge of the […] and ligated there in two stages being separated by an interval of 30 minutes. […] Electrograms were monitored continuously throughout the experiment and the number of ventricular and sinus beats (expressed per minute) was counted for 5 minutes every 15 or 30 minutes after p.o. administration of compound and the percentage of ventricular premature beats were calculated.

[5] = target: T1, thromboxane A2 synthetase (Oryctolagus cuniculus, UniProt G1TAZ9); test: Thromboxane A2 synthetase inhibition, washed rabbit platelets, C^14-arachidonic acid substrate; format: biochemical; conditions: in vitro
T1 construct: Using washed rabbit platelets as the enzyme sources; from tissue; host or cells: washed rabbit platelets
T1 sequence (G1TAZ9 1-530): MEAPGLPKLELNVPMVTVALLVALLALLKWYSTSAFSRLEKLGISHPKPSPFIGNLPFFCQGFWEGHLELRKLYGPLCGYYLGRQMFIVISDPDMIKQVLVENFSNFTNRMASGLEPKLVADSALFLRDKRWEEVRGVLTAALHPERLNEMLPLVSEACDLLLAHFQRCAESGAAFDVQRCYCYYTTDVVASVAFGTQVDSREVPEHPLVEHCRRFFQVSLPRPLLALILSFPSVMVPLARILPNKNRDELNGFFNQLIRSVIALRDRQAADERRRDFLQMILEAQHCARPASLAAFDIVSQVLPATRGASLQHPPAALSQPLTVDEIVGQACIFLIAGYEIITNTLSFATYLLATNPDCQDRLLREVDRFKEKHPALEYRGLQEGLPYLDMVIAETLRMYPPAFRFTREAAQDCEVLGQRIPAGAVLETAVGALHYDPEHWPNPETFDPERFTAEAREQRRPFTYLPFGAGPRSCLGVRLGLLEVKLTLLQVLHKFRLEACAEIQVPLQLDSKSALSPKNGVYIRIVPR
Description: as §1, §2

[6] = target: T2, thromboxane A2 synthetase (Homo sapiens, UniProt P24557); test: Thromboxane A2 synthetase inhibition, human platelets, PG H2 substrate; format: biochemical; conditions: PG H2 as the substrate, read-out: thromboxane A2 synthetase inhibition IC50 range
T2 construct: thromboxane A2 synthetase activity of human platelets; from tissue; host or cells: human platelets
T2 sequence (P24557 1-533): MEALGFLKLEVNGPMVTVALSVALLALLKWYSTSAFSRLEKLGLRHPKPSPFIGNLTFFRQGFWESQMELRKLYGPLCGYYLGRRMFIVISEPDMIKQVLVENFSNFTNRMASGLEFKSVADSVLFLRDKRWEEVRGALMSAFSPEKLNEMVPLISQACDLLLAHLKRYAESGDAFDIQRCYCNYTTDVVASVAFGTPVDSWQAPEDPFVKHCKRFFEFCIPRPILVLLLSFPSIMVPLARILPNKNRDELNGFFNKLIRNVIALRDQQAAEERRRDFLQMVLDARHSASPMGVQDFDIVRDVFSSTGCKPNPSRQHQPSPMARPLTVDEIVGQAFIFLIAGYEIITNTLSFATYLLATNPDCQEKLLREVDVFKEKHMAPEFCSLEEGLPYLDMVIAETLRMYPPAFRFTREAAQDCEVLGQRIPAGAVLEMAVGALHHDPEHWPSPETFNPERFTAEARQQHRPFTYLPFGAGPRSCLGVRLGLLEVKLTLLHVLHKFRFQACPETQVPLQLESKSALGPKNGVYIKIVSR
Description: as §2

[7] = test system: collagen-induced rabbit platelet aggregation; test: Ex vivo inhibition of collagen-induced rabbit platelet aggregation by plasma of orally treated rats; format: in vivo, rabbit platelets; plasma of treated rats; conditions: for collagen-induced platelet aggregation, % of control: 4 rats, 1 hour after dosing, collagen 3 μg/ml, control = 100%
Description: (4) Ex vivo experiments: Inhibition of rabbit platelet aggregation induced by collagen by the plasma of rats treated with oral rac.-2-amino-N-(2,6-dimethylphenyl)-N-[3-(3-pyridinyl)propyl]propanamide dihydrochloride
The antiplatelet aggregatory activity of rac.-2-amino-N-(2,6-dimethylphenyl)-N-[3-(3-pyridinyl) propyl]propanamide dihydrochloride was observed ex vivo in rats.
control. The control = 100% platelet aggregation.
An aliquot (125 μl) of the platelet free plasma of the rats which had
been orally treated with compound for 1 hour was added to the platelet
rich plasma (125 μl) of the rabbit. Collagen (3 μg/ml) induced
platelet aggregation was measured turbidimetrically.

[8] = read-out: Ouabain Induced Arrhythmias MED, Table III

Structure (SMILES)	IC50 (Thromboxane Synthase)	IC50 [2]	IC50 [3]	minimal effective dose [1, 8]	further results
Cc1cccc(C)c1NC(=O)C(C)N (centres unmarked) [reference compound]		> 100 µM	> 100 µM	15.5 ± 3.4 mg/kg	
Cc1cccc(C)c1N(CCn1ccnc1)C(=O)CCCc1cccnc1	0.1 to 1 µM	0.5 µM	0.5 µM		Ouabain Induced Arrhythmias: number dead/number tested ([1]; dead at 3 mg/kg IV): 1/2
Cc1cccc(C)c1N(CCCc1cccnc1)C(=O)Cn1ccnc1	0.1 to 1 µM	> 10 µM	1 µM		Ouabain Induced Arrhythmias: number dead/number tested ([1]; dead at 1 mg/kg IV): 1/2
Cc1ccc(N(CCCc2cccnc2)C(=O)C(C)N)cc1 (racemic) [H H CH3, rac.-2-amino-N-(4-methylphenyl)-N-[3-(3-pyridinyl)propyl]propanamide]	10 to 100 µM			> 10 mg/kg	
CC(N)C(=O)N(CCCc1cccnc1)c1ccccc1 (racemic) [H H H, rac.-2-amino-N-phenyl-N-[3-(3-pyridinyl)propyl]propanamide]	10 to 100 µM			> 10 mg/kg	
Cc1cccc(C)c1N(CCCc1cccnc1)C(=O)C(C)N.Cl.Cl (racemic) [rac.-2-amino-N-(2,6-dimethylphenyl)-N-[3-(3-pyridinyl)propyl]propanamide dihydrochloride]	10 to 100 µM	5 µM	20 µM	4.4 ± 1.4 mg/kg	No. of effective cases/No. of experiments ([1]; 1 mg/kg i.v.): 0/4; No. of effective cases/No. of experiments ([1]; 3 mg/kg i.v.): 4/5; No. of effective cases/No. of experiments ([1]; 10 mg/kg i.v.): 1/1; minimal effective dose ([1]; 0.25 h, successive injections of 1, 3 and 10 mg/kg at 15 minute intervals, read-out: MED (minimum effective dose), Table I): 4.4 ± 1.4 mg/kg; onset of the antiarrhythmic effects ([4]; 30 mg/kg p.o.): approximately 1 hour; time of maximum effect after dosing ([4]; 30 mg/kg p.o.): 5 h; percentage of ventricular premature beats at maximum effect ([4]; 30 mg/kg p.o., 5 hours after dosing, from 94±1.5%, p<0.01): 13±7.9%; incidence of ventricular premature contractions and conversion to sinus rhythm ([4]; 30 mg/kg p.o.): dramatically decreased the incidence of ventricular premature contractions (VPCs) and converted ventricular arrhythmias to sinus rhythm; onset of the antiarrhythmic effects ([4]; 100 mg/kg p.o.): ~2 h; time of maximum effect after dosing ([4]; 100 mg/kg p.o.): 2.5 h; percentage of ventricular premature beats at maximum effect ([4]; 100 mg/kg p.o., 2.5 hours after dosing, from 94±0.5%, p<0.05): 10±9.5%; incidence of ventricular premature contractions and conversion to sinus rhythm ([4]; 100 mg/kg p.o.): dramatically decreased the incidence of ventricular premature contractions (VPCs) and converted ventricular arrhythmias to sinus rhythm; duration of the antiarrhythmic effects after dosing ([4]; 30 and 100 mg/kg p.o.): at least 6 hours; IC50 [5]: 38 µM; IC50 [6]: 1 to 10 µM; collagen-induced platelet aggregation, % of control ([7]; 50 mg/kg p.o.): 77.1 ± 11.7 % of control; collagen-induced platelet aggregation, % of control ([7]; 100 mg/kg p.o., p < 0.01): 64.8 ± 6.2 % of control; collagen-induced platelet aggregation, % of control ([7]; 200 mg/kg p.o., p < 0.01): 40.3 ± 14.0 % of control; ED50 ([7]; Rattus norvegicus, Platelet, po, plasma of rats treated orally for 1 hour, read-out: ED50, inhibition of collagen-induced rabbit platelet aggregation (95% confidence limit)): 123 mg/kg; ED50, inhibition of collagen-induced rabbit platelet aggregation (95% confidence limit) ([7]; plasma of rats treated orally for 1 hour, dihydrochloride, 60 min): 123 (85-274) mg/kg p.o.

Continued, in another order:

IC50 (Thromboxane Synthase)	IC50 [2]	IC50 [3]	Structure (SMILES)	minimal effective dose [1, 8]	further results
10 to 100 µM	> 10 µM	> 10 µM	Cc1cccc(C)c1N(CCCCc1cccnc1)C(=O)C(C)N (centres unmarked)		Ouabain Induced Arrhythmias: number converted/number tested ([1]; converted at 3 mg/kg IV): 1/3
~10 µM	> 10 µM	> 10 µM	Cc1cccc(C)c1N(CCCCn1ccnc1)C(=O)C(C)N (centres unmarked)	> 10 mg/kg	
10 to 100 µM			Cc1cccc(C)c1N(CCCCCCc1cccnc1)C(=O)C(C)N (centres unmarked)	8.3 ± 1.8 mg/kg	
0.1 to 1 µM	> 10 µM	> 10 µM	Cc1cccc(C)c1N(CCCc1cccnc1)C(=O)Cn1ccnc1C	> 10 mg/kg	
